Results taken from publication PMC2997738 (2008).

What was measured:
[1] = tested on: GdG-3 (RNA, riboswitch) GGACAUACAAUCGCGUGGAUAUGGCACGCAAGAUCCCGCCGGGCACCGUAAAUGUCCGACUAUGUCC; test: ITC; conditions: 100 mM KCl, 20 mM MgCl2; 50 mM K+-Hepes pH 7.5, 30 °C; apparent
[2] = tested on: Wild-type G-box B. subtilis xpt–pbuX (xpt) (RNA, riboswitch) GGACAUAUAAUCGCGUGGAUAUGGCACGCAAGUUUCUACCGGGCACCGUAAAUGUCCGACUAUGUCC; test: ITC; conditions: 100 mM KCl, 20 mM MgCl2; 50 mM K+-Hepes pH 7.5, 30 °C; apparent

**Q.** With `Nc1nc2c(ncn2[C@@H]2O[C@H](CO)[C@@H](O)[C@H]2O)c(=O)[nH]1` as the molecule, how does the “KD,rG” value [1] read?
**A.** 121 ± 8 µM

**Q.** With `Nc1nc2c(ncn2[C@H]2C[C@H](O)[C@@H](CO)O2)c(=O)[nH]1` as the molecule, how does the “KD,dG” value [2] read?
**A.** 12 ± 1 µM

**Q.** What about the “KD,dG” value [1] of the same molecule?
**A.** 39 ± 1 µM

**Q.** How did the “KD,G” value [1] turn out when `Nc1nc2[nH]cnc2c(=O)[nH]1` was run?
**A.** 1200 ± 700 µM
